Results from patent publication EP4813993A1, “COMPOUND, PREPARATION METHOD THEREFOR, AND USE THEREOF” (Sichuan Kelun Pharmaceutical Research Institute Co., Ltd., priority 2023, dated 2025).

Molecular target: T1, Nav1.8 channels (Homo sapiens, UniProt Q9Y5Y9)
T1 construct: expressed in transfected cells
Experiment: Manual patch-clamp, current of stably overexpressed Nav1.8 channels (resting state voltage program)
Type: cell-based
Conditions: for inhibition at 0.001 µM / inhibition at 0.01 µM: read-out: Inhibition rate %; for inhibition at 0.01 µM: concentration of 10 nM
Description: Experimental Example 1: Effects of test substances on current of stably overexpressed Nav1.8 channels monitored via manual patch-clamp technique
Test compounds were dissolved in dimethyl sulfoxide (DMSO).
The extracellular fluid was as follows: 140 mM NaCl, 3.5 mM KCl, 1 mM MgCl2•6H2O, 2 mM CaCl2•2H2O, 10 mM D-Glucose, 10 mM HEPES, 1.25 mM NaH2PO4•2H2O; the pH was adjusted to 7.4 with NaOH. The intracellular fluid was as follows: 50 mM CsCl, 10 mM NaCl, 10 mM HEPES, 60 mM CsF, 20 mM EGTA; the pH was adjusted to 7.2 with CsOH.
2. Experimental materials and instruments
• 1) patch-clamp amplifier: EPC 10 (HEKA) • 2) micromanipulator: MP225 (Sutter Instrument) • 3) inverted microscope: MF53 (Mshot) • 4) micropipette puller: P97 (Sutter Instrument) • 5) capillary glass tube: BF150-86-10 (Sutter Instrument)
3. Experimental procedures
• 1) After the compounds were prepared into solutions with specified concentrations, the solutions were sequentially added to the pipeline of the drug delivery system and labeled. • 2) The cell climbing coverslip was placed in the recording chamber, the appropriate cells were selected under the inverted microscope, and the position of the drug delivery tip was adjusted. • 3) A capillary glass tube was pulled into a suitable recording electrode using the micropipette puller, and then the electrode filled with the intracellular fluid was mounted in the microelectrode holder. The micromanipulator was adjusted under the inverted microscope to allow the recording electrode to contact the cell, and negative pressure was applied to the electrode to form a high-resistance seal. At this time, fast capacitance compensation was performed, and then the application of negative pressure was continued to break the cell membrane, forming a whole-cell recording mode. Finally, slow capacitance compensation was performed, and related parameters were recorded. • 4) After the cell current stabilized, administration was started. Each concentration of the drug was applied for five minutes or until the current stabilized before proceeding to monitor the next concentration. The drug solutions were administered via gravity-fed delivery, flowing through the recording chamber to act on the cells in an ascending order of concentration (from low to high). A peristaltic pump was employed for solution exchange in the recording process.
4 Test voltage program (resting state) and results
After the formation of the whole-cell seal, the cell voltage was clamped at -120 mV, followed by depolarization to 0 mV using a square-wave pulse with a duration of 50 ms to elicit Nav1.8 currents. This procedure was repeated every 20 s to monitor the maximum current induced by the square wave. After the current stabilized, the test compounds were administered. Once the response stabilized, the intensity of the current block was calculated.

T1 sequence (Q9Y5Y9 whole entry): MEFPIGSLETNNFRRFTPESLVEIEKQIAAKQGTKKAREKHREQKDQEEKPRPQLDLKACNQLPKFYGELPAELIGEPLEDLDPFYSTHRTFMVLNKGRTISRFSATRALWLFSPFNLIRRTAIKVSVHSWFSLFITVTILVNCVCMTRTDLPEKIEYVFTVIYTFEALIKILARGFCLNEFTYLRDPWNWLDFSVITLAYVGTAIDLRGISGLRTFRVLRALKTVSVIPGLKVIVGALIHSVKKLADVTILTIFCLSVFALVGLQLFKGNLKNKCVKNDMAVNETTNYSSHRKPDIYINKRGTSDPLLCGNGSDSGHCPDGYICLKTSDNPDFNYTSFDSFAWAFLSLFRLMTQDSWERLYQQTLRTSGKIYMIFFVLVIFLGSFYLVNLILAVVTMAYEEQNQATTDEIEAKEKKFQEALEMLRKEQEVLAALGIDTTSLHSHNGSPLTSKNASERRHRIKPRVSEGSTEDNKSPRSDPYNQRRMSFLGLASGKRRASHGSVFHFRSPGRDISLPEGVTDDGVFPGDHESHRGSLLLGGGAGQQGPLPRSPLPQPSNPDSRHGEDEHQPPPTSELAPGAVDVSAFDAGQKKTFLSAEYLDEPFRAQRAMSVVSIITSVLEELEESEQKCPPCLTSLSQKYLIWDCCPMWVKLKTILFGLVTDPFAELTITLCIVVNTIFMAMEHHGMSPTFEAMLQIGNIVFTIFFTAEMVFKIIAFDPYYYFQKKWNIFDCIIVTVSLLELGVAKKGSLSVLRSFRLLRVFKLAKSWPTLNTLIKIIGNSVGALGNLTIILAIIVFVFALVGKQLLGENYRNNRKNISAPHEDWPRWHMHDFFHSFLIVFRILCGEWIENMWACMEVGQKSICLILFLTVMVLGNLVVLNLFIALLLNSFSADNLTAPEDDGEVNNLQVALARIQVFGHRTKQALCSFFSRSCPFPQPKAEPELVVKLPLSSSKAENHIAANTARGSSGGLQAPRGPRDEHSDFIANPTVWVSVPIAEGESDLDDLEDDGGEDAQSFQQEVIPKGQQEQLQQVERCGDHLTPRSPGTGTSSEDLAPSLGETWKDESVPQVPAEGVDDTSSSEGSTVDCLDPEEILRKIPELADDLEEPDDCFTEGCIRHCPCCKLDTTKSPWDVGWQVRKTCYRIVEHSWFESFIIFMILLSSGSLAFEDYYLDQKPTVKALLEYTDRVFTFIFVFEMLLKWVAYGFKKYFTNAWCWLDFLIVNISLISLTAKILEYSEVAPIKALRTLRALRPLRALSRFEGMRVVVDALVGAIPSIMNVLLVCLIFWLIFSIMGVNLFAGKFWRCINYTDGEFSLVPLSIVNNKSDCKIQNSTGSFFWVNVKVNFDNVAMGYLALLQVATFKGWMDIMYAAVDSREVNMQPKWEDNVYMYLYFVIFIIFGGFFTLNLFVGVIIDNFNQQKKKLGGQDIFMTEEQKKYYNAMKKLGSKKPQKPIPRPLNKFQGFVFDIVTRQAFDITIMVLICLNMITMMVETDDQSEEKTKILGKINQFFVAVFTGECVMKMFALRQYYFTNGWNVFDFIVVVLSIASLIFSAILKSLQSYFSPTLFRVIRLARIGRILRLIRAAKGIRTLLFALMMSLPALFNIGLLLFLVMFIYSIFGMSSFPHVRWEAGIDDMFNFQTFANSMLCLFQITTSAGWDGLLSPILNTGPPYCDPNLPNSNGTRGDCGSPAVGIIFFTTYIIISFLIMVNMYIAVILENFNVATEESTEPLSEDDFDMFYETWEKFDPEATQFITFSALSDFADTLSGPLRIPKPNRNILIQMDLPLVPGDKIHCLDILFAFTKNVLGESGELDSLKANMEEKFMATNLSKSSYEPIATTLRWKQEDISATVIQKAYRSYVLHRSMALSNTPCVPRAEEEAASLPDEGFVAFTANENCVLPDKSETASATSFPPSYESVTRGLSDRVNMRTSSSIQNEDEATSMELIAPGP

| SMILES | inhibition at 0.001 µM (concentration of 1 nM) [%] | inhibition at 0.01 µM [%] | further results |
| --- | --- | --- | --- |
| C=CC(=O)Nc1cc(NC(=O)[C@@H]2S[C@@](C)(C(F)(F)F)C[C@H]2c2ccc(F)c(F)c2OC)ccn1 [Compound 252-A, (2R,3S,5R)-N-(2-acrylamidopyridin-4-yl)-3-(3,4-difluoro-2-methoxyphenyl)-5-methyl-5-(trifluoromethyl)tetrahydrothiophene-2-carboxamide] | 62.7 | – | – |
| CNC(=O)c1cc(NC(=O)[C@@H]2S[C@@](C)(C(F)(F)F)C[C@H]2c2ccc(F)c(F)c2OC)ccn1 [Compound 253-A, 4-((2R,3S,5R)-3-(3,4-difluoro-2-methoxyphenyl)-5-methyl-5-(trifluoromethyl)tetrahydrothiophene-2-carboxamido)-N-methylpicolinamide] | 68.6 | – | – |
| COc1c([C@@H]2C[C@](C)(C(F)(F)F)S[C@H]2C(=O)Nc2ccc(F)c(CO)c2)ccc(F)c1F [Compound 254-A, (2R,3S,5R)-3-(3,4-difluoro-2-methoxyphenyl)-N-(4-fluoro-3-(hydroxymethyl)phenyl)-5-methyl-5-(trifluoromethyl)tetrahydrothiophene-2-carboxamide] | 76.8 | – | – |
| COc1c([C@@H]2C[C@](C)(C(F)(F)F)S[C@H]2C(=O)Nc2ccc3c(c2)B(O)NC3=O)ccc(F)c1F [Compound a-2, (2R,3S,5R)-3-(3,4-difluoro-2-methoxyphenyl)-N-(1-hydroxy-3-oxo-2,3-dihydro-1H-benzo[c][1,2]azaborol-6-yl)-5-methyl-5-(trifluoromethyl)tetrahydrothiophene-2-carboxamide] | 83.9 | – | – |
| COc1c(C2CC(C)(C(F)(F)F)SC2C(=O)Nc2cccc(S(=O)(=O)NC#N)c2)ccc(F)c1F (centres unmarked) [Compound a-9, N-(3-(N-cyanosulfamoyl)phenyl)-3-(3,4-difluoro-2-methoxyphenyl)-5-methyl-5-(trifluoromethyl)tetrahydrothiophene-2-carboxamide] | – | 85.3 | – |
| COc1c([C@@H]2C[C@](C)(C(F)(F)F)S[C@H]2C(=O)Nc2ccc(=O)[nH]n2)ccc(F)c1F [a-3-A, (2R,3S,5R)-3-(3,4-difluoro-2-methoxyphenyl)-5-methyl-N-(6-oxo-1,6-dihydropyridazin-3-yl)-5-(trifluoromethyl)tetrahydrothiophene-2-carboxamide] | – | 80.2 | – |
| COc1c([C@@H]2C[C@](C)(C(F)(F)F)S[C@H]2C(=O)Nc2ccc3c(c2)B(O)OC3=O)ccc(F)c1F [a-6-A, (2R,3S,5R)-3-(3,4-difluoro-2-methoxyphenyl)-N-(1-hydroxy-3-oxo-1,3-dihydrobenzo[c][1,2]oxaborol-6-yl)-5-methyl-5-(trifluoromethyl)tetrahydrothiophene-2-carboxamide] | – | 76.9 | – |
| COc1c(C2CC(C)(C(F)(F)F)SC2C(=O)Nc2ccnc(N=S(C)(C)=O)c2)ccc(F)c1F (centres unmarked) [a-10, 3-(3,4-difluoro-2-methoxyphenyl)-N-(2-((dimethyl(oxo)-16-sulfanylidene)amino)pyridin-4-yl)-5-methyl-5-(trifluoromethyl)tetrahydrothiophene-2-carboxamide] | – | 88 | – |
| COc1c(C2CC(C)(C(F)(F)F)SC2C(=O)Nc2ccc(F)c(N=S(C)(C)=O)c2)ccc(F)c1F (centres unmarked) [a-15] | 70.9 | – | – |
| COc1c(C2CC(C)(C(F)(F)F)SC2C(=O)Nc2ccnc(NO)c2)ccc(F)c1F (centres unmarked) [a-16, (4-(3-(3,4-difluoro-2-methoxyphenyl)-5-methyl-5-(trifluoromethyl)tetrahydrothiophene-2-carboxamido)-2-hydroxylamine)pyridine] | – | 92.3 | – |
| COc1c([C@@H]2C[C@](C)(C(F)(F)F)S[C@H]2C(=O)Nc2ccc(F)c(C/C(C#N)=C(\C)O)c2)ccc(F)c1F [a-17-A, (2R,3S,5R)-N-(3-((Z)-2-cyano-3-hydroxybut-2-enyl)-4-fluorophenyl)-3-(3,4-difluoro-2-methoxyphenyl)-5-methyl-5-(trifluoromethyl)tetrahydrothiophene-2-carboxamide] | – | 65.5 | – |
| COc1c([C@@H]2C[C@](C)(C(F)(F)F)S[C@H]2C(=O)Nc2cccc(NS(N)(=O)=O)c2)ccc(F)c1F [a-18-A, (2R,3S,5R)-3-(3,4-difluoro-2-methoxyphenyl)-5-methyl-N-(3-(sulfamoylamino)phenyl)-5-(trifluoromethyl)tetrahydrothiophene-2-carboxamide] | – | 86.3 | – |
| COc1c([C@@H]2C[C@](C)(C(F)(F)F)S[C@H]2C(=O)Nc2cn(S(=O)(=O)C3CC3)nc2C)ccc(F)c1F [a-21-A, (2R,3S,5R)-N-(1-(cyclopropylsulfonyl)-3-methyl-1H-pyrazol-4-yl)-3-(3,4-difluoro-2-methoxyphenyl)-5-methyl-5-(trifluoromethyl)tetrahydrothiophene-2-carboxamide] | 84.6 | – | – |
| COc1c(C2CC(C)(C(F)(F)F)SC2C(=O)Nc2ccc(F)c(N=S(C)(C)=O)c2)ccc(F)c1F (centres unmarked) [a-22, 3-(3,4-difluoro-2-methoxyphenyl)-N-(3-((dimethyl(oxo)-16-sulfonamido)amino)-4-fluorophenyl)-5-methyl-5-(trifluoromethyl)tetrahydrothiophene-2-carboxamide] | – | – | Inhibition rate (%) (concentration of 1 nM, 0.001 µM): 80.7% |
| COc1c([C@@H]2C[C@](C)(C(F)(F)F)S[C@H]2C(=O)Nc2ccc3c(c2)C(=O)NC3=O)ccc(F)c1F [a-23-A, (2R,3S,5R)-3-(3,4-difluoro-2-methoxyphenyl)-N-(1,3-dioxoisoindol-5-yl)-5-methyl-5-(trifluoromethyl)tetrahydrothiophene-2-carboxamide] | 56.5 | – | – |
| COc1c(C2CC(C)(C(F)(F)F)SC2C(=O)Nc2cccc(NS(=O)(=O)CCN)c2)ccc(F)c1F (centres unmarked) [a-25, N-(3-((2-aminoethyl)sulfonamido)phenyl)-3-(3,4-difluoro-2-methoxyphenyl)-5-methyl-5-(trifluoromethyl)tetrahydrothiophene-2-carboxamide] | – | 96.5 | – |
| COc1c([C@@H]2C[C@](C)(C(F)(F)F)S[C@H]2C(=O)Nc2ccc3c(c2)S(=O)(=O)NCN3)ccc(F)c1F [a-26-A, (2R,3S,5R)-3-(3,4-difluoro-2-methoxyphenyl)-N-(1,1-dioxide-3,4-dihydro-2H-benzo[e][1,2,4]thiadiazin-7-yl)-5-methyl-5-(trifluoromethyl)tetrahydrothiophene-2-carboxamide] | – | 95.6 | – |
| COc1c(C2CC(C)(C(F)(F)F)SC2C(=O)Nc2ccc3c(c2)S(=O)(=O)N=CN3)ccc(F)c1F (centres unmarked) [a-28-A, 7-(3-(3,4-difluoro-2-methoxyphenyl)-5-methyl-5-(trifluoromethyl)tetrahydrothiophene-2-carboxamido)-4H-benzo[e][1,2,4]thiadiazine-1,1-dioxide] | – | 80.6 | – |
| COc1c([C@@H]2C[C@](C)(C(F)(F)F)S[C@H]2C(=O)Nc2cccc(N=[N+]=[N-])c2)ccc(F)c1F [a-29-A, (2R,3S,5R)-N-(3-azidophenyl)-3-(3,4-difluoro-2-methoxyphenyl)-5-methyl-5-(trifluoromethyl)tetrahydrothiophene-2-carboxamide] | – | – | IC50: 5 pM |
| COc1c([C@@H]2C[C@](C)(C(F)(F)F)S[C@H]2C(=O)Nc2cnnc(N=[N+]=[N-])c2)ccc(F)c1F [a-30-A, (2R,3S,5R)-(4-(3-(3,4-difluoro-2-methoxyphenyl)-5-methyl-5-(trifluoromethyl)tetrahydrothiophene-2-carboxamido)-6-azido)pyridazine] | 74.5 | – | – |
